Reference: EPA's ToxRefDB 2

Assays:
hamster = settings: Subchronic oral toxicity in rodents, golden syrian, Feed, dose end: 90 day, group: systemic, systemic / in life observation / body weight / body weight + systemic / in life observation / body weight / body weight gain + systemic / in…
rat [1] = settings: Subchronic oral toxicity in rodents, wistar, Feed, dose end: 90 day, group: systemic, systemic / clinical chemistry / cholesterol / cholesterol + systemic / pathology microscopic / kidney / degeneration + systemic / pathology …
rabbit [2] = settings: Prenatal developmental toxicity study, new zealand white, Oral, Gavage/Intubation, dose end: 28 GD
rat [3] = settings: Prenatal developmental toxicity study, sprague dawley, Oral, Gavage/Intubation, dose end: 20 GD
dog [4] = settings: Chronic toxicity, beagle, Oral, Capsule, dose end: 55 week, group: systemic
rat [5] = settings: Combined chronic toxicity/carcinogenicity, wistar, Oral, Feed, dose end: 106 week, group: systemic
rabbit [6] = settings: Prenatal developmental toxicity study, new zealand white, Oral, Gavage/Intubation, dose end: 20 GD
rat [7] = settings: Multigenerational reproductive toxicity study, wistar, Oral, Feed, dose end: 2 generation
rat [8] = settings: Prenatal developmental toxicity study, sprague dawley, Oral, Gavage/Intubation, dose end: 20 GD; remark: listed apart in the source
rat [9] = settings: Combined chronic toxicity/carcinogenicity, sprague dawley, Oral, Feed, dose end: 104 week, group: systemic
dog [10] = settings: Subchronic oral toxicity in nonrodent, beagle, Capsule, dose end: 13 week, group: systemic, systemic / clinical chemistry / alanine aminotransferase (alt/sgpt) / alanine aminotransferase (alt/sgpt) + systemic / clinical chemistry / …
rat [11] = settings: Combined chronic toxicity/carcinogenicity, sprague dawley, Dermal, Topical, dose end: 101 week, group: systemic
[12] = group: developmental, developmental / developmental malformation / bone / incomplete ossification + developmental / developmental malformation / eye / [other] + …
[13] = group: maternal, reproductive / reproductive performance / aborted / aborted + reproductive / reproductive performance / postimplantation loss / …
[14] = group: developmental, developmental / developmental malformation / bone / incomplete ossification
[15] = group: maternal, reproductive / reproductive performance / postimplantation loss / postimplantation loss + systemic / in life observation / body weight / …
[16] = systemic / pathology microscopic / adrenal gland / vacuolization + systemic / clinical chemistry / [other] / [other] + systemic / clinical …
[17] = systemic / in life observation / body weight / body weight gain
[18] = group: developmental, developmental / developmental malformation / bone / full supernumerary + developmental / developmental malformation / bone / incomplete …
[19] = group: maternal, reproductive / reproductive performance / aborted / aborted + systemic / in life observation / body weight / body weight gain + systemic / …
[20] = group: maternal, reproductive / offspring survival early / litter size / litter size
[21] = group: parental, systemic / organ weight / epididymis / absolute + systemic / organ weight / epididymis / relative to body weight
[22] = group: parental, systemic / organ weight / epididymis / absolute + systemic / organ weight / epididymis / relative to body weight + systemic / organ weight…
[23] = group: reproductive, reproductive / reproductive performance / gestational length / gestational length + reproductive / reproductive performance / implantations…
[24] = group: developmental, systemic / in life observation / body weight / fetal weight + developmental / developmental malformation / bone / absent + developmental / …
[25] = group: maternal, reproductive / reproductive performance / implantations / implantations
[26] = systemic / in life observation / clinical signs / fur (altered appearance)
[27] = systemic / pathology microscopic / mammary gland / fibroadenoma + systemic / in life observation / body weight / body weight + systemic / in…
[28] = systemic / pathology microscopic / mammary gland / fibroadenoma + systemic / pathology microscopic / pituitary gland / acidophil adenoma + …

CCCCOC(=O)C(C)Oc1ccc(Oc2ccc(C(F)(F)F)cn2)cc1 (stereo unspecified) [Fluazifop-butyl]
LEL (hamster): 292 mg/kg/day | LOAEL (hamster): 292 mg/kg/day | NEL (hamster): 78.3 mg/kg/day | NOAEL (hamster): 78.3 mg/kg/day | LEL (rat [1]): 7.1 mg/kg/day | LOAEL (rat [1]): 7.1 mg/kg/day | NEL (rat [1]): 0.7 mg/kg/day | NOAEL (rat [1]): 0.7 mg/kg/day | LEL (rabbit [2]; [12]): 90 mg/kg/day | LOAEL (rabbit [2]; [12]): 90 mg/kg/day | NEL (rabbit [2]; [12]): 30 mg/kg/day | NOAEL (rabbit [2]; [12]): 30 mg/kg/day | LEL (rabbit [2]; [13]): 90 mg/kg/day | LOAEL (rabbit [2]; [13]): 90 mg/kg/day | NEL (rabbit [2]; [13]): 30 mg/kg/day | NOAEL (rabbit [2]; [13]): 30 mg/kg/day | LEL (rat [3]; [14]): 10 mg/kg/day | LOAEL (rat [3]; [14]): 10 mg/kg/day | NEL (rat [3]; [14]): < 10 mg/kg/day | NOAEL (rat [3]; [14]): < 10 mg/kg/day | LEL (rat [3]; [15]): 200 mg/kg/day | LOAEL (rat [3]; [15]): > 200 mg/kg/day | NEL (rat [3]; [15]): 50 mg/kg/day | NOAEL (rat [3]; [15]): ≥ 200 mg/kg/day | NEL (dog [4]; [16]): 5 mg/kg/day | NOAEL (dog [4]; [16]): 5 mg/kg/day | LOAEL (dog [4]; systemic / pathology microscopic / adrenal gland / vacuolization + systemic / pathology microscopic / thymus / involution): 25 mg/kg/day | LEL (dog [4]; systemic / pathology microscopic / adrenal gland / vacuolization + systemic / pathology microscopic / thymus / involution + systemic / …): 25 mg/kg/day | LEL (rat [5]; [17]): 0.127 mg/kg/day | NEL (rat [5]; [17]): < 0.127 mg/kg/day | LOAEL (rat [5]; systemic / pathology microscopic / kidney / nephropathy + systemic / in life observation / mortality / mortality): 4.15 mg/kg/day | NOAEL (rat [5]; systemic / pathology microscopic / kidney / nephropathy + systemic / organ weight / kidney / absolute + systemic / organ weight / kidney / …): 0.51 mg/kg/day | LEL (rabbit [6]; [18]): 50 mg/kg/day | LOAEL (rabbit [6]; [18]): 50 mg/kg/day | NEL (rabbit [6]; [18]): 10 mg/kg/day | NOAEL (rabbit [6]; [18]): 10 mg/kg/day | LEL (rabbit [6]; [19]): 50 mg/kg/day | LOAEL (rabbit [6]; [19]): 50 mg/kg/day | NEL (rabbit [6]; [19]): 10 mg/kg/day | NOAEL (rabbit [6]; [19]): 10 mg/kg/day | LEL (rat [7]; [20]): 17.5 mg/kg/day | LOAEL (rat [7]; [20]): 17.5 mg/kg/day | NEL (rat [7]; [20]): 5.8 mg/kg/day | NOAEL (rat [7]; [20]): 5.8 mg/kg/day | LOAEL (rat [7]; group: offspring, reproductive / offspring survival early / litter size / litter size): 17.5 mg/kg/day | NOAEL (rat [7]; group: offspring, reproductive / offspring survival early / litter size / litter size + systemic / pathology microscopic / kidney / hydronephrosis): 5.8 mg/kg/day | LEL (rat [7]; group: offspring, systemic / pathology microscopic / kidney / hydronephrosis): 7.1 mg/kg/day | NEL (rat [7]; group: offspring, systemic / pathology microscopic / kidney / hydronephrosis + developmental / offspring survival late / viability index / viability index + …): 0.88 mg/kg/day | LEL (rat [7]; [21]): 0.74 mg/kg/day | NEL (rat [7]; [21]): < 0.74 mg/kg/day | LOAEL (rat [7]; [22]): 5.8 mg/kg/day | NOAEL (rat [7]; [22]): 0.74 mg/kg/day | NEL (rat [7]; group: reproductive, reproductive / offspring survival early / birth index / live birth index + reproductive / reproductive performance / fertility / fertility…): 0.88 mg/kg/day | LEL (rat [7]; group: reproductive, reproductive / reproductive performance / gestational length / gestational length): 7.1 mg/kg/day | LOAEL (rat [7]; [23]): > 21.7 mg/kg/day | NOAEL (rat [7]; [23]): ≥ 21.7 mg/kg/day | LOAEL (rat [8]; group: developmental, systemic / in life observation / body weight / fetal weight): 5 mg/kg/day | LEL (rat [8]; [24]): 5 mg/kg/day | NEL (rat [8]; [24]): 1 mg/kg/day | NOAEL (rat [8]; [24]): 1 mg/kg/day | LEL (rat [8]; [25]): 10 mg/kg/day | LOAEL (rat [8]; [25]): > 200 mg/kg/day | NEL (rat [8]; [25]): 5 mg/kg/day | NOAEL (rat [8]; [25]): ≥ 200 mg/kg/day | LEL (rat [9]; [26]): 0.1 mg/kg/day | NEL (rat [9]; [26]): < 0.1 mg/kg/day | LOAEL (rat [9]; systemic / in life observation / mortality / mortality): 3 mg/kg/day | NOAEL (rat [9]; systemic / in life observation / mortality / mortality + systemic / in life observation / clinical signs / fur (altered appearance) + …): 1 mg/kg/day | LEL (dog [10]): 250 mg/kg/day | LOAEL (dog [10]): 250 mg/kg/day | NEL (dog [10]): 25 mg/kg/day | NOAEL (dog [10]): 25 mg/kg/day

CC/C(=C(\c1ccc(O)cc1)c1ccc(OCCN(C)C)cc1)c1ccccc1 [4-Hydroxytamoxifen]
LEL (rat [11]; [27]): 0.02 mg/kg/day | NEL (rat [11]; [27]): < 0.02 mg/kg/day | LOAEL (rat [11]; [28]): > 1 mg/kg/day | NOAEL (rat [11]; [28]): ≥ 1 mg/kg/day
